For data set [1] the following is noted: intranasal administration; cited from earlier work.
The conditions of data set [2]: sublingually with cyclodextrins (women about 0.1-2 mg; men about 0.5-20 mg); cited from earlier work.
Data set [3] is described as follows: Total and free testosterone in blood plasma 15 minutes after sublingual intake of the androgen(s). Format: in vivo, human. The settings on record: measured not calculated, 5 mg T or 5 mg T + 5 mg DHT. How it is done: Testosterone (T) vs. testosterone and dihydrotestosterone (T+DHT) The first example concerns two male heterosexual patients. Two alternative forms of testosterone administration were considered for a treatment. The first treatment involved taking 5 mg sublingual testosterone (T) (solution consisting of alcohol, denaturalized water, testosterone and cyclodextrins). The second consisted of simultaneously taking 5 mg sublingual testosterone and 5 mg sublingual dihydrotestosterone (DHT) (solution consisting of alcohol, denaturalized water, DHT and cyclodextrins). The testosterone and DHT solutions were prepared by a pharmacist on the request of a general practitioner. Subsequently, the changes in total testosterone and free testosterone in blood plasma were examined, 15 minutes after intake of the androgen(s).
The table below describes the effects of the different treatments on ‘total testosterone’ and ‘free testosterone (i.e. measured, not calculated)’ for both patients:
This is consistent with the assumption that SHBG becomes more saturated as a result of the binding of DHT to SHBG. This means that the ingested testosterone can no longer bind to SHBG, and consequently there will be a greater increase in unbound testosterone (i.e. free testosterone). […] Total testosterone and free testosterone were measured 15 minutes after the administration of T and (T&DHT). dysfunction/disorder

Here are results for two molecules from patent US20260248811A1, “COMPOSITIONS FOR TREATING AN INDIVIDUAL FOR IMPROVEMENT OF COGNITIVE FUNCTIONS” (priority 2023, published 2026).

In the case of `CC[C@H](C)[C@@H]1NC(=O)[C@H](Cc2ccc(O)cc2)NC(=O)[C@@H](N)CSSC[C@@H](C(=O)N2CCC[C@H]2C(=O)N[C@@H](CC(C)C)C(=O)NCC(N)=O)NC(=O)[C@H](CC(N)=O)NC(=O)[C@H](CCC(N)=O)NC1=O` [oxytocin], in data set [1], the “Return of oxytocin levels to baseline” value is given as “approximately 90 minutes” and the “T-max of oxytocin levels in the blood circulation” value is “approximately 15 minutes”.
In the case of `C[C@]12CC[C@H]3[C@@H](CCC4=CC(=O)CC[C@@]43C)[C@@H]1CC[C@@H]2O` [T, 17-β-hydroxyandrost-4-en-3-one], the “Time to pharmacological peak in testosterone and free testosterone” value in data set [2] is given as “about 15 minutes”. The “Free T” value in data set [3] (Patient 1, blood plasma) is 440 pml/L; in data set [3] (Patient 2, blood plasma), 1030 pml/L.
